Measurements reported in ChEMBL document CHEMBL2440080, “Synthesis and biological evaluation of novel acylhydrazone derivatives as potential antitumor agents” (Bioorg Med Chem, 2013).

What was measured:
Assay type in all cases: functional
[1] = tested on: RXF 393; experiment: Cytotoxicity against human RXF393 cells after 48 hrs by sulforhodamine B assay; conditions: RXF 393, 48 h
[2] = tested on: RPMI-8226; experiment: Cytotoxicity against human RPMI8226 cells after 48 hrs by sulforhodamine B assay; conditions: RPMI-8226, 48 h
[3] = tested on: PC-3; experiment: Cytotoxicity against human PC3 cells after 48 hrs by sulforhodamine B assay; conditions: PC-3, 48 h
[4] = tested on: T47D; experiment: Cytotoxicity against human T47D cells after 48 hrs by sulforhodamine B assay
[5] = tested on: SF-268; experiment: Cytotoxicity against human SF268 cells after 48 hrs by sulforhodamine B assay; conditions: SF-268, 48 h
[6] = tested on: HCT-15; experiment: Cytotoxicity against human HCT15 cells after 48 hrs by sulforhodamine B assay; conditions: HCT-15, 48 h
[7] = tested on: NCI/ADR-RES; experiment: Cytotoxicity against human NCI/ADR-RES cells after 48 hrs by sulforhodamine B assay
[8] = tested on: HOP-92; experiment: Cytotoxicity against human HOP92 cells after 48 hrs by sulforhodamine B assay; conditions: HOP-92, 48 h
[9] = tested on: U-251; experiment: Cytotoxicity against human U251 cells after 48 hrs by sulforhodamine B assay; conditions: U-251, 48 h
[10] = tested on: HCT-116; experiment: Cytotoxicity against human HCT116 cells after 48 hrs by sulforhodamine B assay; conditions: HCT-116, 48 h
[11] = tested on: DU-145; experiment: Cytotoxicity against human DU145 cells after 48 hrs by sulforhodamine B assay; conditions: DU-145, 48 h
[12] = tested on: OVCAR-4; experiment: Cytotoxicity against human OVCAR4 cells after 48 hrs by sulforhodamine B assay; conditions: OVCAR-4, 48 h
[13] = tested on: SR; experiment: Cytotoxicity against human SR cells after 48 hrs by sulforhodamine B assay
[14] = tested on: CAKI-1; experiment: Cytotoxicity against human CAKI-1 cells after 48 hrs by sulforhodamine B assay; conditions: CAKI-1, 48 h
[15] = tested on: TK-10; experiment: Cytotoxicity against human TK10 cells after 48 hrs by sulforhodamine B assay; conditions: TK-10, 48 h
[16] = tested on: BT-549; experiment: Cytotoxicity against human BT549 cells after 48 hrs by sulforhodamine B assay; conditions: BT-549, 48 h
[17] = tested on: OVCAR-8; experiment: Cytotoxicity against human OVCAR8 cells after 48 hrs by sulforhodamine B assay; conditions: OVCAR-8, 48 h
[18] = Cytotoxicity against human EKVX cells after 48 hrs by sulforhodamine B assay
[19] = tested on: SNB-75; experiment: Cytotoxicity against human SNB75 cells after 48 hrs by sulforhodamine B assay; conditions: SNB-75, 48 h
[20] = tested on: HL-60(TB); experiment: Cytotoxicity against human HL-60(TB) cells after 48 hrs by sulforhodamine B assay; conditions: HL-60, 48 h
[21] = tested on: OVCAR-3; experiment: Cytotoxicity against human OVCAR3 cells after 48 hrs by sulforhodamine B assay; conditions: OVCAR-3, 48 h
[22] = tested on: UACC-62; experiment: Cytotoxicity against human UACC62 cells after 48 hrs by sulforhodamine B assay; conditions: UACC-62, 48 h
[23] = tested on: NCI-H460; experiment: Cytotoxicity against human NCI-H460 cells after 48 hrs by sulforhodamine B assay; conditions: NCI-H460, 48 h
[24] = tested on: CCRF-CEM; experiment: Cytotoxicity against human CCRF-CEM cells after 48 hrs by sulforhodamine B assay
[25] = tested on: IGROV-1; experiment: Cytotoxicity against human IGROV1 cells after 48 hrs by sulforhodamine B assay; conditions: IGROV-1, 48 h
[26] = tested on: M14; experiment: Cytotoxicity against human M14 cells after 48 hrs by sulforhodamine B assay; conditions: M14, 48 h
[27] = tested on: KM12; experiment: Cytotoxicity against human KM12 cells after 48 hrs by sulforhodamine B assay; conditions: KM12, 48 h
[28] = tested on: SF-295; experiment: Cytotoxicity against human SF295 cells after 48 hrs by sulforhodamine B assay; conditions: SF-295, 48 h
[29] = tested on: HOP-62; experiment: Cytotoxicity against human HOP62 cells after 48 hrs by sulforhodamine B assay; conditions: HOP-62, 48 h
[30] = tested on: LOX IMVI; experiment: Cytotoxicity against human LOXIMVI cells after 48 hrs by sulforhodamine B assay
[31] = tested on: NCI-H322M; experiment: Cytotoxicity against human NCI-H322M cells after 48 hrs by sulforhodamine B assay
[32] = tested on: ACHN; experiment: Cytotoxicity against human ACHN cells after 48 hrs by sulforhodamine B assay
[33] = tested on: MOLT-4; experiment: Cytotoxicity against human MOLT4 cells after 48 hrs by sulforhodamine B assay; conditions: MOLT-4, 48 h

Row | SMILES | GI50 [1] | GI50 [2] | GI50 [3] | GI50 [4] | GI50 [5] | GI50 [6] | GI50 [7] | GI50 [8] | GI50 [9] | GI50 [10] | GI50 [11] | GI50 [12] | GI50 [13] | GI50 [14] | GI50 [15] | GI50 [16] | GI50 [17] | GI50 [18] | GI50 [19] | GI50 [20] | other results
1 | CCOc1cccc(/C=N/NC(=O)Cc2ccc(Nc3ccnc(C(F)(F)F)c3)cc2)c1O | 3160 nM | 501 nM | 2000 nM | 2510 nM | 1260 nM | 1000 nM | 3980 nM | 2000 nM | 1580 nM | 1260 nM | 2000 nM | 794 nM | 316 nM | 2510 nM | 3980 nM | 2510 nM | 3160 nM | 3980 nM | 12600 nM | 1000 nM | GI50 [21]: 398 nM; GI50 [22]: 1580 nM; GI50 [23]: 1580 nM; GI50 [24]: 316 nM; GI50 [25]: 2510 nM; GI50 [26]: 2000 nM; GI50 [27]: 3980 nM; GI50 [28]: 3980 nM; GI50 [29]: 2510 nM; GI50 [30]: 1580 nM; GI50 [31]: 2510 nM; GI50 [32]: 1580 nM; GI50 [33]: 501 nM
2 | O=C(Cc1ccc(Nc2ccnc(C(F)(F)F)c2)cc1)N/N=C/c1ccccc1O | 1580 nM | 1000 nM | 794 nM | 3980 nM | 2510 nM | 631 nM | 3160 nM | 2510 nM | 2000 nM | 2000 nM | 5010 nM | 3160 nM | 316 nM | 1000 nM | 7940 nM | 2510 nM | 2510 nM | 3160 nM | 2000 nM | 2510 nM | GI50 [21]: 794 nM; GI50 [22]: 2000 nM; GI50 [23]: 794 nM; GI50 [24]: 1260 nM; GI50 [25]: 794 nM; GI50 [26]: 2000 nM; GI50 [27]: 2000 nM; GI50 [28]: 2510 nM; GI50 [29]: 2510 nM; GI50 [30]: 1000 nM; GI50 [31]: 2510 nM; GI50 [32]: 1580 nM; GI50 [33]: 1000 nM
3 | O=C(N/N=C/c1ccc(O)cc1O)c1ccc(Nc2ccnc(C(F)(F)F)c2)cc1 | 12600 nM | > 100000 nM | 20000 nM | 79.4 nM | 39.8 nM | > 100000 nM | > 100000 nM | 15800 nM | 63.1 nM | 39800 nM | 20000 nM | 39.8 nM | > 100000 nM | 50.1 nM | 50.1 nM | 10 nM | 3160 nM | 6310 nM | 3980 nM | 12600 nM | GI50 [21]: 25.1 nM; GI50 [22]: 50.1 nM; GI50 [23]: > 100000 nM; GI50 [24]: 31.6 nM; GI50 [25]: 15800 nM; GI50 [26]: > 100000 nM; GI50 [27]: > 100000 nM; GI50 [28]: 10 nM; GI50 [30]: 2510 nM; GI50 [31]: 19.9 nM; GI50 [32]: 31600 nM
4 | CCOc1cccc(/C=N/NC(=O)c2ccc(Nc3ccnc(C(F)(F)F)c3)cc2)c1O | 398 nM | 398 nM | 398 nM | 1580 nM | 1260 nM | 631 nM | 3160 nM | 631 nM | 1580 nM | 398 nM | 3980 nM | 794 nM | 251 nM | 631 nM | 2510 nM | 1580 nM | 631 nM | 1000 nM | 631 nM | 1260 nM | GI50 [21]: 316 nM; GI50 [22]: 794 nM; GI50 [23]: 501 nM; GI50 [24]: 501 nM; GI50 [25]: 501 nM; GI50 [26]: 1260 nM; GI50 [27]: 1580 nM; GI50 [28]: 1260 nM; GI50 [29]: 1260 nM; GI50 [30]: 631 nM; GI50 [31]: 1260 nM; GI50 [32]: 1000 nM; GI50 [33]: 251 nM
5 | O=C(N/N=C/c1ccc(O)cc1O)c1cccc(Nc2ccnc(C(F)(F)F)c2)c1 | 1260 nM | 3980 nM | 1260 nM | 501 nM | 631 nM | 3160 nM | 3980 nM | 1580 nM | 794 nM | 501 nM | 1580 nM | 501 nM | 398 nM | 3160 nM | 2510 nM | 631 nM | 631 nM | 1000 nM | 6310 nM | 501 nM | GI50 [21]: 316 nM; GI50 [22]: 398 nM; GI50 [23]: 3160 nM; GI50 [24]: 398 nM; GI50 [25]: 1260 nM; GI50 [26]: 631 nM; GI50 [27]: 2510 nM; GI50 [28]: 2000 nM; GI50 [29]: 501 nM; GI50 [30]: 501 nM; GI50 [31]: 316 nM; GI50 [32]: 2000 nM; GI50 [33]: 631 nM
6 | CCOc1cccc(/C=N/NC(=O)c2cccc(Nc3ccnc(C(F)(F)F)c3)c2)c1O | 1000 nM | 2000 nM | 1000 nM | 631 nM | 631 nM | 2000 nM | 3160 nM | 3160 nM | 1260 nM | 398 nM | 631 nM | 631 nM | 158 nM | 1000 nM | 1260 nM | 1580 nM | 794 nM | 794 nM | 7940 nM | 251 nM | GI50 [21]: 200 nM; GI50 [22]: 631 nM; GI50 [23]: 1000 nM; GI50 [24]: 251 nM; GI50 [25]: 794 nM; GI50 [26]: 1260 nM; GI50 [27]: 1260 nM; GI50 [28]: 2000 nM; GI50 [29]: 794 nM; GI50 [30]: 631 nM; GI50 [31]: 631 nM; GI50 [32]: 1000 nM; GI50 [33]: 316 nM
